Reference: patent US12077483B2, “Modified amine lipids” (Intellia Therapeutics, Inc., priority 2018, dated 2024)

Tests used:
[1] = pKa of amine lipid by TNS fluorescence; type: physicochemical; conditions: probe TNS (6-(p-toluidino)-2-naphthalenesulfonic acid sodium salt), unformulated amine lipid in ethanol, sodium phosphate buffers -9.0
Experimental: The pKa of each amine lipid was determined according to the method in Jayaraman, et al. (Angewandte Chemie, 2012) with the following adaptations. The pKa was determined for unformulated amine lipid in ethanol. Lipid stock solutions (2.94 mM) were diluted into Sodium Phosphate Buffers (0.1 M, Boston Bioproducts) of different pH (pH-range: 4.5-9.0) yielding a final lipid concentration of approx. 100 μM. The test samples were supplemented with TNS {6-(p-Toluidino)-2-naphthalenesulfonic acid sodium salt}, incubated and the fluorescence intensity was measured using excitation and emission wavelengths of 321 nm and 448 nm, respectively. The recorded data were normalized and the respective pKa values were derived from sigmoidal fitting.

mouse TTR = assay: Serum TTR ELISA in mice after LNP delivery; type: in vivo; conditions: mouse serum, relative to TSS control of same experiment
Experimental: For studies measuring in vivo editing in liver, CD-1 female mice were dosed at 0.1 mpk unless otherwise noted. Animals were euthanized at 6 or 7 days by exsanguinationvia cardiac puncture under isoflourane anesthesia. Liver tissue was collected from each animal for DNA extraction and analysis. Blood was collected into serum separator tubes or into tubes containing buffered sodium citrate for plasma as described herein. Cohorts of mice were measured for editing by Next-Generation Sequencing (NGS).
Blood was collected and the serum was isolated as indicated. The total mouse TTR serum levels were determined using a Mouse Prealbumin (Transthyretin) ELISA Kit (Aviva Systems Biology, Cat. OKIA00111). Briefly, sera were serial diluted with kit sample diluent, e.g. to a final dilution of 10,000-fold and/or 2,500-fold. The diluted sample was then added to the ELISA plates and the assay was then carried out according to directions. Serum TTR data from treatment groups are expressed as a percentage of vehicle control levels.

Row | pKa [1] | SMILES | Serum TTR % TSS (mouse TTR; dose 0.03 mpk) | Serum TTR % TSS (mouse TTR; dose 0.1 mpk)
1 | 7.2 | CCCCC/C=C\C/C=C\CCCCCCCC(=O)OCC(COC(=O)CCCCCCC/C=C\C/C=C\CCCCC)OC(=O)CCC(CCCCCCCCCCCC)OC(=O)NCCCN(CC)CC (centres unmarked) [Compound 13, 2-((4-(((3-(diethylamino)propyl)carbamoyl)oxy)hexadecanoyl)oxy)propane-1,3-diyl (9Z,9′Z,12Z,12′Z)-bis(octadeca-9,12-dienoate)] | – | –
2 | 6.41 | CCCCC/C=C\C/C=C\CCCCCCCC(=O)OCC(COC(=O)CCCCCCC/C=C\C/C=C\CCCCC)OC(=O)CCC(CCCCC(C)C)OC(=O)NCCN(C)CC (centres unmarked) [Compound 80, 2-((4-(((2-(ethyl(methyl)amino)ethyl)carbamoyl)oxy)-9-methyldecanoyl)oxy)propane-1,3-diyl (9Z,9′Z,12Z,12′Z)-bis(octadeca-9,12-dienoate)] | – | –
3 | 7.02 | CCCCC/C=C\C/C=C\CCCCCCCC(=O)OCC(COC(=O)CCCCCCC/C=C\C/C=C\CCCCC)COC(=O)CCC(CCCC)OC(=O)NCCN1CCCC1 (centres unmarked) [Compound 112, 2-(((4-(((2-(pyrrolidin-1l-yl)ethyl)carbamoyl)oxy)octanoyl)oxy)methyl)propane-1,3-diyl (9Z,9′Z,12Z,12′Z)-bis(octadeca-9,12-dienoate)] | – | –
4 | 6.42 | CCCCC/C=C\C/C=C\CCCCCCCC(=O)OCC(COC(=O)CCCCCCC/C=C\C/C=C\CCCCC)OC(=O)CCC(CCCCCC(C)C)OC(=O)NCCN(C)CC (centres unmarked) [Compound 81, 2-((4-(((2-(ethyl(methyl)amino)ethyl)carbamoyl)oxy)-10-methylundecanoyl)oxy)propane-1,3-diyl (9Z,9′Z,12Z,12′Z)-bis(octadeca-9,12-dienoate)] | – | –
5 | 6.75 | CCCCC/C=C\C/C=C\CCCCCCCC(=O)OCC(COC(=O)CCCCCCC/C=C\C/C=C\CCCCC)OC(=O)CCC(CCCCCC)OC(=O)OCCCN1CCC1 (centres unmarked) [Compound 101, 2-((4-(((3-(azetidin-1-yl)propoxy)carbonyl)oxy)decanoyl)oxy)propane-1,3-diyl (9Z,9′Z,12Z,12′Z)-bis(octadeca-9,12-dienoate)] | – | –
6 | 7.02 | CCCCC/C=C\C/C=C\CCCCCCCC(=O)OCC(COC(=O)CCCCCCC/C=C\C/C=C\CCCCC)COC(=O)CC(CCCC)OC(=O)NCCN1CCCC1 (centres unmarked) [Compound 113, 2-(((3-(((2-(pyrrolidin-1-yl)ethyl)carbamoyl)oxy)heptanoyl)oxy)methyl)propane-1,3-diyl (9Z,9′Z,12Z,12′Z)-bis(octadeca-9,12-dienoate)] | – | –
7 | < 5 | CCCCC/C=C\C/C=C\CCCCCCCC(=O)OCC(COC(=O)CCCCCCC/C=C\C/C=C\CCCCC)OC(=O)CCC(CCCCCCCCCCCC)OC(=O)OCCN(C)C (centres unmarked) [Compound 4, 2-((4-(((2-(dimethylamino)ethoxy)carbonyl)oxy)hexadecanoyl)oxy)propane-1,3-diyl (9Z,9′Z,12Z,12′Z)-bis(octadeca-9,12-dienoate)] | 73.09 % TSS | –
8 | 6.91 | CCCCC/C=C\C/C=C\CCCCCCCC(=O)OCC(COC(=O)CCCCCCC/C=C\CCCCCCCC)OC(=O)CCC(CCCC)OC(=O)NCCN1CCCC1 (centres unmarked) [Compound 109, 3-(oleoyloxy)-2-((4-(((2-(pyrrolidin-1-yl)ethyl)carbamoyl)oxy)octanoyl)oxy)propyl (9Z,12Z)-octadeca-9,12-dienoate] | – | –
9 | 6.25 | CCCCC/C=C\C/C=C\CCCCCCCC(=O)OCC(COC(=O)CCCCCCC/C=C\C/C=C\CCCCC)COC(=O)CCC(CCCCCCCC)OC(=O)NCCN(C)CC (centres unmarked) [Compound 54, 2-(12-methyl-6-octyl-3,8-dioxo-2,7-dioxa-9,12-diazatetradecyl)propane-1,3-diyl (9Z,9′Z,12Z,12′Z)-bis(octadeca-9,12-dienoate)] | – | 18.32 % TSS
10 | 5.36 | CCCCC/C=C\C/C=C\CCCCCCCC(=O)OCC(COC(=O)CCCCCCC/C=C\C/C=C\CCCCC)OC(=O)CCC(CCCCCCCC)OC(=O)N(C)CCN(C)CC (centres unmarked) [Compound 37, 2-((4-(((2-(ethyl(methyl)amino)ethyl)(methyl)carbamoyl)oxy)dodecanoyl)oxy) propane-1,3-diyl (9Z,9′Z,12Z,12′Z)-bis(octadeca-9,12-dienoate)] | – | –
11 | 6.61 | CCCCC/C=C\C/C=C\CCCCCCCC(=O)OCC(COC(=O)CCCCCCC/C=C\C/C=C\CCCCC)OC(=O)CCC(CCCCCC(C)C)OC(=O)NCCN1CCCC1 (centres unmarked) [Compound 83, 2-((10-methyl-4-(((2-(pyrrolidin-1-yl)ethyl)carbamoyl)oxy)undecanoyl)oxy)propane-1,3-diyl (9Z,9′Z,12Z,12′Z)-bis(octadeca-9,12-dienoate)] | – | –
12 | 5.99 | CCCCC/C=C\C/C=C\CCCCCCCC(=O)OCC(COC(=O)CCCCCCC/C=C\C/C=C\CCCCC)OC(=O)CCC(CCCCCCCCCCCC)OC(=O)OC1CCN(C)CC1 (centres unmarked) [f47] | – | –
13 | 5.28 | CCCCC/C=C\C/C=C\CCCCCCCC(=O)OCC(COC(=O)CCCCCCC/C=C\C/C=C\CCCCC)OC(=O)CCC(CCCCCCCCCCCC)OC(=O)OCCCN(CC)CC (centres unmarked) [Compound 2, 2-((4-(((3-(diethylamino)propoxy)carbonyl)oxy)hexadecanoyl)oxy)propane-1,3-diyl (9Z,9′Z,12Z,12′Z)-bis(octadeca-9,12-dienoate)] | – | –
14 | 5.16 | CCCCC/C=C\C/C=C\CCCCCCCC(=O)OCC(COC(=O)CCCCCCC/C=C\C/C=C\CCCCC)OC(=O)CCC(CCCCCC)OC(=O)OCCCN1CCCCC1 (centres unmarked) [Compound 102, 2-((4-(((3-(piperidin-1-yl)propoxy)carbonyl)oxy)decanoyl)oxy)propane-1,3-diyl (9Z,9′Z,12Z,12′Z)-bis(octadeca-9,12-dienoate)] | – | –
15 | 6.32 | CCCCCCCCCCOC(=O)CCCCCCCC(=O)OCC(COC(=O)CCCCCCCC(=O)OCCCCCCCCCC)OC(=O)CCCC(CCCCCCCC)OC(=O)NCCN(C)CC (centres unmarked) [Compound 58] | – | –
16 | 7.33 | CCCCC/C=C\C/C=C\CCCCCCCC(=O)OCC(COC(=O)CCCCCCC/C=C\C/C=C\CCCCC)OC(=O)CCCOC(=O)NCCN(C)CC [Compound 43, 2-((4-(((2-(ethyl(methyl)amino)ethyl)carbamoyl)oxy)butanoyl)oxy)propane-1,3-diyl (9Z,9′Z,12Z,12′Z)-bis(octadeca-9,12-dienoate)] | – | –
17 | 6.28 | CCCCCCCCCCOC(=O)CCCCCCCC(=O)OCC(COC(=O)CCCCCCCC(=O)OCCCCCCCCCC)OC(=O)CC(CCCCCCCC)OC(=O)NCCN(C)CC (centres unmarked) [Compound 56, 9,9′-didecyl O′1,O1-(2-((3-(((2-(ethyl(methyl)amino)ethyl)carbamoyl)oxy)undecanoyl)oxy)propane-1,3-diyl) di(nonanedioate)] | – | 69.70 % TSS
18 | 7.01 | CCCCCCCC/C=C\CCCCCCCC(=O)OCC(COC(=O)CCCCCCC/C=C\CCCCCCCC)OC(=O)CCC(CCCC)OC(=O)NCCN1CCCC1 (centres unmarked) [Compound 110, 2-((4-(((2-(pyrrolidin-1-yl)ethyl)carbamoyl)oxy)octanoyl)oxy)propane-1,3-diyl dioleate] | – | –
19 | 7.02 | CCCCC/C=C\C/C=C\CCCCCCCC(=O)OCC(COC(=O)CCC(CCCC)OC(=O)NCCN1CCCC1)OC(=O)CCCCCCC/C=C\C/C=C\CCCCC (centres unmarked) [Compound 111, 3-((4-(((2-(pyrrolidin-1-yl)ethyl)carbamoyl)oxy)octanoyl)oxy)propane-1,2-diyl (9Z,9′Z,12Z,12′Z)-bis(octadeca-9,12-dienoate)] | – | –
20 | 5.96 | CCCCC/C=C\C/C=C\CCCCCCCC(=O)OCC(COC(=O)CCCCCCC/C=C\C/C=C\CCCCC)COC(=O)C(C)(C)C(CCCCCCCC)OC(=O)NCCN(C)CC (centres unmarked) [Compound 99, 2-(4,4,11-trimethyl-5-octyl-3,7-dioxo-2,6-dioxa-8,11-diazatridecyl)propane-1,3-diyl (9Z,9′Z,12Z,12′Z)-bis(octadeca-9,12-dienoate)] | 92.42 % TSS | 42.87 % TSS
21 | 6.71 | CCCCC/C=C\C/C=C\CCCCCCCC(=O)OCC(COC(=O)CCCCCCC/C=C\C/C=C\CCCCC)OC(=O)CCC(CCCCC(C)C)OC(=O)NCCN1CCCC1 (centres unmarked) [Compound 82, 2-((9-methyl-4-(((2-(pyrrolidin-1-yl)ethyl)carbamoyl)oxy)decanoyl)oxy)propane-1,3-diyl (9Z,9′Z,12Z,12′Z)-bis(octadeca-9,12-dienoate)] | – | –
